# Like-named read-outs stand apart in the source and are kept apart here.
# Assays:
# CAMK2A = biological target: T1, CAMK2A (Homo sapiens, UniProt Q9UQM7); test: KinomeScan; format: binding; conditions: read-out: % Control
# T1 construct: purchased DiscoveRx (KinomeScan service)
# EGFR = biological target: T2, EGFR (Homo sapiens, UniProt P00533); test: KinomeScan; format: binding; conditions: read-out: % Control
# T2 construct: purchased DiscoveRx (Fremont, CA), KinomeScan service
# FLT3(K663Q) = biological target: T3, FLT3(K663Q) (Homo sapiens, UniProt P36888, K663Q); test: KinomeScan; format: binding; conditions: read-out: % Control
# T3 construct: purchased DiscoveRx (Fremont, CA)
# GSK3B = biological target: T4, GSK3B (Homo sapiens, UniProt P49841); test: KinomeScan; format: binding; conditions: read-out: % Control
# T4 construct: purchased DiscoveRx (Fremont, CA)
# T4 sequence (P49841 whole entry): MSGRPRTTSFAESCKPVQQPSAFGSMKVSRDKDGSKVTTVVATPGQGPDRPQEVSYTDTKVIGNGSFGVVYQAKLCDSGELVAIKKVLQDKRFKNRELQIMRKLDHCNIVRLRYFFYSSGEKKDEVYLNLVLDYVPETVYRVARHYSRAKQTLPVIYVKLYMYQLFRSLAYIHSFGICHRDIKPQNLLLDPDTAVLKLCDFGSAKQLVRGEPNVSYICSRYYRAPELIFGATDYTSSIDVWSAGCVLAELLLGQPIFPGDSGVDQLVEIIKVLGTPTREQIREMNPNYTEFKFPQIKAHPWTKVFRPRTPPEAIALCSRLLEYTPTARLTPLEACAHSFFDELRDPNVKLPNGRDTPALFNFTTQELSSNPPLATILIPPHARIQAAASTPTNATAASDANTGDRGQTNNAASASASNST
# [1] = biological target: T5, JAK1(JH2domain-pseudokinase) (Homo sapiens, UniProt P23458); test: KinomeScan; format: binding; conditions: read-out: % Control
# T5 construct: JAK1(JH2domain-pseudokinase); purchased DiscoveRx (Fremont, CA)
# T5 sequence (P23458 583-855 limits assumed): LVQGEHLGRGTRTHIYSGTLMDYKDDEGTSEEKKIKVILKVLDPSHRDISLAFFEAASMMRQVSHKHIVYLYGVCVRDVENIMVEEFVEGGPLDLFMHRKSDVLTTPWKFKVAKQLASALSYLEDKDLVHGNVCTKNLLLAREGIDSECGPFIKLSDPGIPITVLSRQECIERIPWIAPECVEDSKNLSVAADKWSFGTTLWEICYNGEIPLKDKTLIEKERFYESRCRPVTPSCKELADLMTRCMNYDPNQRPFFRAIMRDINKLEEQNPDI
# MST4 = biological target: T6, MST4 (Homo sapiens, UniProt Q9P289); test: KinomeScan; format: binding; conditions: read-out: % Control
# T6 construct: purchased DiscoveRx
# p38-gamma = biological target: T7, p38-gamma (Homo sapiens, UniProt P53778); test: KinomeScan; format: binding; conditions: read-out: % Control
# T7 construct: purchased DiscoveRx
# T7 sequence (P53778 whole entry): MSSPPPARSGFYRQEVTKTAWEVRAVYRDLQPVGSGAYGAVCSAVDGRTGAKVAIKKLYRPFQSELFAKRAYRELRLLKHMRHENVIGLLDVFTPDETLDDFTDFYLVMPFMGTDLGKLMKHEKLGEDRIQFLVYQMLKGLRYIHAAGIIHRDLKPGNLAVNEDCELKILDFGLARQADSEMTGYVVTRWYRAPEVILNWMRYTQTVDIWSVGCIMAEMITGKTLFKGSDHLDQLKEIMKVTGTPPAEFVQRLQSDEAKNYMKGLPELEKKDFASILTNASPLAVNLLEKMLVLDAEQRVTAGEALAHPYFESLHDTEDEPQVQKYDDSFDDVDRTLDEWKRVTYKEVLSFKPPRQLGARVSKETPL
# PCTK1 = biological target: T8, PCTK1 (Homo sapiens, UniProt Q00536); test: KinomeScan; format: binding; conditions: read-out: % Control
# T8 construct: purchased DiscoveRx
# PHKG2 = biological target: T9, PHKG2 (Homo sapiens, UniProt P15735); test: KinomeScan; format: binding; conditions: read-out: % Control
# T9 construct: purchased DiscoveRx (Fremont, CA)
# T9 sequence (P15735 whole entry): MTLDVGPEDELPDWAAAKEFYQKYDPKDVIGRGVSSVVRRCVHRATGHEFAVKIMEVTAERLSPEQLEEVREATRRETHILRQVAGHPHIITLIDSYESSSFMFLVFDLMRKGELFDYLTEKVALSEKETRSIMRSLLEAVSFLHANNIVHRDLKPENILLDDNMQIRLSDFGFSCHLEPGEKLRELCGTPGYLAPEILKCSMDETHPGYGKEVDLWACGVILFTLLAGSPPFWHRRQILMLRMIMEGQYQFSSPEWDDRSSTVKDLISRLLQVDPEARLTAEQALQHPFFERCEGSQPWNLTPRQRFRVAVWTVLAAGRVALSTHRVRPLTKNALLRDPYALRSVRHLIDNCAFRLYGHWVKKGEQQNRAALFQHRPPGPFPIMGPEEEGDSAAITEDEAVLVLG
# PKN2 = biological target: T10, PKN2 (Homo sapiens, UniProt Q16513); test: KinomeScan; format: binding; conditions: read-out: % Control
# T10 construct: purchased DiscoveRx (Fremont, CA)
# ROS1 = biological target: T11, ROS1 (Homo sapiens, UniProt P08922); test: KinomeScan; format: binding; conditions: read-out: % Control
# T11 construct: purchased DiscoveRx (Fremont, CA)
# [2] = biological target: T12, RSK3(Kin.Dom.1-N-terminal) (Homo sapiens, UniProt Q15349); test: KinomeScan; format: binding; conditions: read-out: % Control
# T12 construct: RSK3(Kin.Dom.1-N-terminal); purchased DiscoveRx (Fremont, CA)
# T12 sequence (Q15349 59-318 limits assumed): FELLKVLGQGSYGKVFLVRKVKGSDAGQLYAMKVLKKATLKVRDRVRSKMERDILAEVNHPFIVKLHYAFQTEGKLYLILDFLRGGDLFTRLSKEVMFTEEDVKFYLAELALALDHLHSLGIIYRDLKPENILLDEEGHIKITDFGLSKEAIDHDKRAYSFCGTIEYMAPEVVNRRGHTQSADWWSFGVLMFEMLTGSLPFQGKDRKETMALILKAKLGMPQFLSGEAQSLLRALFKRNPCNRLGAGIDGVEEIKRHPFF
# STK39 = biological target: T13, STK39 (Homo sapiens, UniProt Q9UEW8); test: KinomeScan; format: binding; conditions: read-out: % Control
# T13 construct: purchased DiscoveRx (Fremont, CA)
# TAOK3 = biological target: T14, TAOK3 (Homo sapiens, UniProt Q9H2K8); test: KinomeScan; format: binding; conditions: read-out: % Control
# T14 construct: purchased DiscoveRx (Fremont, CA)
# TIE1 = biological target: T15, TIE1 (Homo sapiens, UniProt P35590); test: KinomeScan; format: binding; conditions: read-out: % Control
# T15 construct: purchased DiscoveRx (Fremont, CA)
# T15 sequence (P35590 22-1138): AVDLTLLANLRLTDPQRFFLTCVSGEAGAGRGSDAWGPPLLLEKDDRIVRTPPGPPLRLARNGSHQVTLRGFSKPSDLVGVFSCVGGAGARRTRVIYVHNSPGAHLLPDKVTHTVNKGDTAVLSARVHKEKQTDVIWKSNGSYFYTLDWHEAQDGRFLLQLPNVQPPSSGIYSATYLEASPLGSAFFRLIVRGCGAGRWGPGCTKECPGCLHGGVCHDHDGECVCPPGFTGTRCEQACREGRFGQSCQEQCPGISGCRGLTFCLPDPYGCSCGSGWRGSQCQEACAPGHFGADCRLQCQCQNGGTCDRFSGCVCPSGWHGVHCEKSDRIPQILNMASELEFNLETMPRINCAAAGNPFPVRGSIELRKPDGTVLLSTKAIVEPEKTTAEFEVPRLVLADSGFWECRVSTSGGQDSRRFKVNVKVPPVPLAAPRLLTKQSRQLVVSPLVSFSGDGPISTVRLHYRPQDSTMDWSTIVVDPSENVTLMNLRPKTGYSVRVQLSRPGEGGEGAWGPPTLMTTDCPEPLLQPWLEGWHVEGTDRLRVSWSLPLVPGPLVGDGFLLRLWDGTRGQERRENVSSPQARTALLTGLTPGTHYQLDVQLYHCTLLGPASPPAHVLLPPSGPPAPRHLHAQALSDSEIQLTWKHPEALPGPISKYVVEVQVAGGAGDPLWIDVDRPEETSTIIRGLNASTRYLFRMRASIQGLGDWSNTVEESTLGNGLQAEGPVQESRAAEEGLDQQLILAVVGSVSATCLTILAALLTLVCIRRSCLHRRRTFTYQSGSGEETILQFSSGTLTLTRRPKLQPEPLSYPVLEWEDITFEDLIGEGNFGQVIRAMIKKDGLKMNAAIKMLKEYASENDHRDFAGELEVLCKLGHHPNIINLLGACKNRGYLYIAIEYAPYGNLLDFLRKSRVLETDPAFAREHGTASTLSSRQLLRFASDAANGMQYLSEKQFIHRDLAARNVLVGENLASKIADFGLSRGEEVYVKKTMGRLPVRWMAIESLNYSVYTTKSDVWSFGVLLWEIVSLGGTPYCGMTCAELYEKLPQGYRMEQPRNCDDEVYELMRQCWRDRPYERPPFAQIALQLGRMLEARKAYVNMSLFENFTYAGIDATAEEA
# TRKB = biological target: T16, TRKB (Homo sapiens, UniProt Q16620); test: KinomeScan; format: binding; conditions: read-out: % Control
# T16 construct: purchased DiscoveRx (Fremont, CA)
# CCR6 = biological target: T17, CCR6 (Homo sapiens, UniProt P51684); test: GPCR Profiler; format: cell-based
# T17 construct: host or cells: Chem-1 cells with Gα15
# T17 sequence (P51684 whole entry): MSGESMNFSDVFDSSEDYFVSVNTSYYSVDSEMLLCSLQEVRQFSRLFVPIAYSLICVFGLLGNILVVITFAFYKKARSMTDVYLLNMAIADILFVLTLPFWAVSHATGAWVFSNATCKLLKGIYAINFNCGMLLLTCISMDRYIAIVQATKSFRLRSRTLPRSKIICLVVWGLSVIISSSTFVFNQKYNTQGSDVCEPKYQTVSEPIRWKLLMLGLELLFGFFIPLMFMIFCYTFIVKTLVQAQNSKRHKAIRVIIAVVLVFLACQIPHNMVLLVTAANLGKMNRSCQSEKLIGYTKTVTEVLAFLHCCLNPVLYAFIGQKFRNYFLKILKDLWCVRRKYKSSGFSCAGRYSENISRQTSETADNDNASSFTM
# mGlu2 = biological target: T18, mGlu2 (Homo sapiens, UniProt Q14416); test: GPCR Profiler; format: cell-based
# T18 construct: host or cells: Chem-1 cells expressing Gα15
# T18 sequence (Q14416 19-872): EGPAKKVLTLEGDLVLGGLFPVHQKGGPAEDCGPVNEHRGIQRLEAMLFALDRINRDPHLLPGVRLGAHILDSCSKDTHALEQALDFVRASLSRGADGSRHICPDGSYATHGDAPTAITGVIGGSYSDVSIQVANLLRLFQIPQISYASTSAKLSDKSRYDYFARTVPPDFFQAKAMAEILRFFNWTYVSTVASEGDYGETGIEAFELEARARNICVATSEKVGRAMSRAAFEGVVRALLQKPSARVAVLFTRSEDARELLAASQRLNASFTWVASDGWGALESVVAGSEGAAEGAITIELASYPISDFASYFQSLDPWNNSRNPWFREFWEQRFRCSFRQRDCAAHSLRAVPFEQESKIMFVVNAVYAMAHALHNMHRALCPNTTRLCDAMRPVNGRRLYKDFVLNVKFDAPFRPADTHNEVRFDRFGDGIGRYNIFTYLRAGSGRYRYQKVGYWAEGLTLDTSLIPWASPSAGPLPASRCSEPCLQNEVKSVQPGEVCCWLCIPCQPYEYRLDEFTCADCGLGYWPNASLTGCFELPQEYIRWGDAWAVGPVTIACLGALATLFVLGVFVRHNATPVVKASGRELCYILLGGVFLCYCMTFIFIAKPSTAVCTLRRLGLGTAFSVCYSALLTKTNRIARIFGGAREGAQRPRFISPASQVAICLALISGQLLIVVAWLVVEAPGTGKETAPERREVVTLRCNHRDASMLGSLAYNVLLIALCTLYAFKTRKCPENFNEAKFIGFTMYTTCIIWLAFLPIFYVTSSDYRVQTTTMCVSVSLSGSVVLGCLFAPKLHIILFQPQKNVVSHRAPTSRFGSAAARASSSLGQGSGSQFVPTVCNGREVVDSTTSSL
# Secretin = biological target: T19, Secretin (Homo sapiens, UniProt P47872); test: GPCR Profiler; format: cell-based
# T19 construct: host or cells: Chem-1 cells with Gα15
# T19 sequence (P47872 23-440): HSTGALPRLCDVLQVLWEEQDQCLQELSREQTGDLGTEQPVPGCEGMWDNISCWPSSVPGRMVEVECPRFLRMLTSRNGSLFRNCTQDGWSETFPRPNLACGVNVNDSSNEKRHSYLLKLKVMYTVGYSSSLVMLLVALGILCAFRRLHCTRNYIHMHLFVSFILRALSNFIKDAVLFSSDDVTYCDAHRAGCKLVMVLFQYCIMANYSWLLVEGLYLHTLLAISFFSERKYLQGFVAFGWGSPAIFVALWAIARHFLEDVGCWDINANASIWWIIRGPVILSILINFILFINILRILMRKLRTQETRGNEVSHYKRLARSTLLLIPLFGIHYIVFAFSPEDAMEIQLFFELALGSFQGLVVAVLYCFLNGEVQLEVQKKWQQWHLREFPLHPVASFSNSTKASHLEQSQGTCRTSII
# V1A = biological target: T20, V1A (Homo sapiens, UniProt P37288); test: GPCR Profiler; format: cell-based
# T20 construct: host or cells: Chem-1 cells with Gα15
# T20 sequence (P37288 whole entry): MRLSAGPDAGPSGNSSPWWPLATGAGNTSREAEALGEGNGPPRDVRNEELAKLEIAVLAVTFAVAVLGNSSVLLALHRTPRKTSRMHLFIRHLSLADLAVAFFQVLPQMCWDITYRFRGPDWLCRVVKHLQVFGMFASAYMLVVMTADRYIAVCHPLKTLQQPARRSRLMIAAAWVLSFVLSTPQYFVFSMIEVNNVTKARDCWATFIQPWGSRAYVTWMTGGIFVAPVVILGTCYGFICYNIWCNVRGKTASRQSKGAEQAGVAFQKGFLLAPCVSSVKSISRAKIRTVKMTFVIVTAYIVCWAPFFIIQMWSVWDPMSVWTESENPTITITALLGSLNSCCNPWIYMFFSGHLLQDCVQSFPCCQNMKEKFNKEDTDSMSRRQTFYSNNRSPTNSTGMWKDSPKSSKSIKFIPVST
# DU 145 = test: Cell Titer-Glo viability, Prostate adenocarcinoma; format: cell-based; conditions: for CC50: Homo sapiens, read-out: LC50 (the source's name)
# Experimental: (§1) OGM2 kills wide variety of cancer cell types. Cell sensitivity can be classified in to Very Sensitive (LC50<2 μM), Sensitive (LC50=2 to 10 μM), Mildly Sensitive (LC50>10 μM), and Refractory (no killing at 10 μM). The listed established cell were incubated with OGM2 at 2 μM or 10 μM for 72 hours under standard cell culture conditions, and relative cell number was assessed using Cell Titer-Glo Luminescent Cell Viability Assay (Promega™) following the manufacturer's instructions. Luminescence was determined using a Cytation 5 reader and Gen5 software package (BioTek™).
# (§2) Cancer cells, which are very sensitive to killing by OGM2 (LCs <2 μM), with reported mRNA expression of GPR68 and the related proton sensing receptor GPR4. LC50's (concentrations causing 50% lethality) were determined using CellTiter-Glo (Promega™, G7570). Cells were plated in 12-well plates (CELLTREAT Scientific Products, 229112) in 1 ml of DMEM with high glucose, GlutaMAX, HEPES, or RPMI 1640 with Penicillin-Streptomycin (ThermoFisher™, 10564029, 11875119 and 15140122) and 10% FBS. Cells were incubated overnight at 37° C. in 5% CO2. Then 1 mL of fresh media was added with DMSO, OGM, or positive control (Erastin; APExBIO Technology, LLC, B1524) and cells incubated for 3 days. On the third day, all media was removed, cells were rinsed with 1×PBS, PBS was removed, and 200 μL of 1× Passive Lysis Buffer (Promega™, E1941) was added to each well. […]. Subsequently, 20 μL of lysate was added to 100 μL CellTiter-Glo™ reagent on a LUMITRAC 200 plate (Greiner™ bio-one, 82050-726). Plates were briefly spun down and read on a GloMax-Multi Detection System (Promega™).
# (§3) The cells listed in the tables above were incubated with OGM2 at 2 μM or 10 μM for 72 hours under standard cell culture conditions, and relative cell number was assessed using Cell Titer-Glo Luminescent Cell Viability Assay (Promega™) following the manufacturer's instructions. Luminescence was determined using a Cytation 5 reader and Gen5 software package (BioTek™). RNA expression of GPR68 and GPR4 in the corresponding cancer cell lines are listed, according to the publicly available The Human Protein Atlas version 22.0 and Ensembl version 103.38 (see proteinatlas.org). The consensus normalized expression value (“nTPM”=normalize transcript per million) was calculated as the maximum nTPM value for each gene in the two data sources.
# PC-3 = test: Cell Titer-Glo viability, Prostate adenocarcinoma; format: cell-based; conditions: for CC50: Homo sapiens, read-out: LC50 (the source's name)
# Experimental: as §1, §2, §3
compound,measurement,setting,value
"CCc1ccc2c(c1)C1(NN=C(c3cccc4ccccc34)S1)C(=O)N2 (centres unmarked) [OGM1, 5-ethyl-5′-naphthalen-1-ylspiro[1H-indole-3,2′-3H-1,3,4-thiadiazole]-2-one]",remaining binding at 10 µM,CAMK2A,75%
same,remaining binding at 10 µM,EGFR,100%
same,remaining binding at 10 µM,FLT3(K663Q),100%
same,remaining binding at 10 µM,GSK3B,83%
same,remaining binding at 10 µM,[1],100%
same,remaining binding at 10 µM,MST4,81%
same,remaining binding at 10 µM,p38-gamma,94%
same,remaining binding at 10 µM,PCTK1,77%
same,remaining binding at 10 µM,PHKG2,71%
same,remaining binding at 10 µM,PKN2,100%
same,remaining binding at 10 µM,ROS1,100%
same,remaining binding at 10 µM,[2],100%
same,remaining binding at 10 µM,STK39,59%
same,remaining binding at 10 µM,TAOK3,79%
same,remaining binding at 10 µM,TIE1,94%
same,remaining binding at 10 µM,TRKB,51%
same,Antagonism,CCR6; 10 uM,5.1
same,Agonism,CCR6; 12.5 uM,1.5
same,Antagonism,mGlu2; 10 uM,−1.2
same,Agonism,mGlu2; 12.5 uM,−0.4
same,Antagonism,Secretin; 10 uM,1.7
same,Agonism,Secretin; 12.5 uM,0.9
same,Antagonism,V1A; 10 uM,12.3
same,Agonism,V1A; 12.5 uM,0.1
CCc1ccc2c(c1)C1(NN=C(c3ccccc3)S1)C(=O)N2 (centres unmarked) [OGM2],% Survival 2 μM OGM,DU 145; 72 hours,44.2%
same,% Survival 10 μM OGM,DU 145; 72 hours,22.2%
same,% Survival 2 μM OGM,"DU 145; DU 145 cells, 2 μM, 72 hours, Cell Titer-Glo",44.2%
same,% Survival 10 μM OGM,"DU 145; DU 145 cells, 10 μM, 72 hours, Cell Titer-Glo",22.2%
same,CC50,"DU 145; DU-145, 72 hours",< 2 µM
same,CC50,"DU 145; DU 145 cells, concentration causing 50% lethality",< 2 µM
same,Class,PC-3,Mildly
same,% Survival 2 μM OGM,PC-3; 72 hours,101.3%
same,% Survival 10 μM OGM,PC-3; 72 hours,74.5%
same,CC50,"PC-3; PC-3, 72 hours",> 10 µM
same,CC50,"PC-3; PC-3 cells, concentration causing 50% lethality",> 10 µM
same,% Survival 2 μM OGM,"PC-3; PC-3 cells, 2 μM, 72 hours, Cell Titer-Glo",101.3%
same,% Survival 10 μM OGM,"PC-3; PC-3 cells, 10 μM, 72 hours, Cell Titer-Glo",74.5%
same,Class,PC-3; Table 13,Low

# From patent US20240327364A1, “THERAPEUTIC TARGETING OF GPR68 TO INDUCE FERROPTOSIS” (University Of Maryland, Baltimore, priority 2023, published 2024)
